Laboratory results published in ChEMBL document CHEMBL1131770, “Multiple parallel synthesis of N,N-dialkyldipeptidylamines as N-type calcium channel blockers” (Bioorg Med Chem Lett, 1999).

These compounds were tested against Voltage-dependent N-type calcium channel subunit alpha-1B (Homo sapiens, UniProt Q00975) (assay: In vitro antagonism of N-type voltage sensitive calcium channel in IMR-32 assay using fluorescent [Ca2+] indicator […] in the presence of 5 uM nitrendipine).
Type: functional

Voltage-dependent N-type calcium channel subunit alpha-1B, sequence (Q00975 whole entry): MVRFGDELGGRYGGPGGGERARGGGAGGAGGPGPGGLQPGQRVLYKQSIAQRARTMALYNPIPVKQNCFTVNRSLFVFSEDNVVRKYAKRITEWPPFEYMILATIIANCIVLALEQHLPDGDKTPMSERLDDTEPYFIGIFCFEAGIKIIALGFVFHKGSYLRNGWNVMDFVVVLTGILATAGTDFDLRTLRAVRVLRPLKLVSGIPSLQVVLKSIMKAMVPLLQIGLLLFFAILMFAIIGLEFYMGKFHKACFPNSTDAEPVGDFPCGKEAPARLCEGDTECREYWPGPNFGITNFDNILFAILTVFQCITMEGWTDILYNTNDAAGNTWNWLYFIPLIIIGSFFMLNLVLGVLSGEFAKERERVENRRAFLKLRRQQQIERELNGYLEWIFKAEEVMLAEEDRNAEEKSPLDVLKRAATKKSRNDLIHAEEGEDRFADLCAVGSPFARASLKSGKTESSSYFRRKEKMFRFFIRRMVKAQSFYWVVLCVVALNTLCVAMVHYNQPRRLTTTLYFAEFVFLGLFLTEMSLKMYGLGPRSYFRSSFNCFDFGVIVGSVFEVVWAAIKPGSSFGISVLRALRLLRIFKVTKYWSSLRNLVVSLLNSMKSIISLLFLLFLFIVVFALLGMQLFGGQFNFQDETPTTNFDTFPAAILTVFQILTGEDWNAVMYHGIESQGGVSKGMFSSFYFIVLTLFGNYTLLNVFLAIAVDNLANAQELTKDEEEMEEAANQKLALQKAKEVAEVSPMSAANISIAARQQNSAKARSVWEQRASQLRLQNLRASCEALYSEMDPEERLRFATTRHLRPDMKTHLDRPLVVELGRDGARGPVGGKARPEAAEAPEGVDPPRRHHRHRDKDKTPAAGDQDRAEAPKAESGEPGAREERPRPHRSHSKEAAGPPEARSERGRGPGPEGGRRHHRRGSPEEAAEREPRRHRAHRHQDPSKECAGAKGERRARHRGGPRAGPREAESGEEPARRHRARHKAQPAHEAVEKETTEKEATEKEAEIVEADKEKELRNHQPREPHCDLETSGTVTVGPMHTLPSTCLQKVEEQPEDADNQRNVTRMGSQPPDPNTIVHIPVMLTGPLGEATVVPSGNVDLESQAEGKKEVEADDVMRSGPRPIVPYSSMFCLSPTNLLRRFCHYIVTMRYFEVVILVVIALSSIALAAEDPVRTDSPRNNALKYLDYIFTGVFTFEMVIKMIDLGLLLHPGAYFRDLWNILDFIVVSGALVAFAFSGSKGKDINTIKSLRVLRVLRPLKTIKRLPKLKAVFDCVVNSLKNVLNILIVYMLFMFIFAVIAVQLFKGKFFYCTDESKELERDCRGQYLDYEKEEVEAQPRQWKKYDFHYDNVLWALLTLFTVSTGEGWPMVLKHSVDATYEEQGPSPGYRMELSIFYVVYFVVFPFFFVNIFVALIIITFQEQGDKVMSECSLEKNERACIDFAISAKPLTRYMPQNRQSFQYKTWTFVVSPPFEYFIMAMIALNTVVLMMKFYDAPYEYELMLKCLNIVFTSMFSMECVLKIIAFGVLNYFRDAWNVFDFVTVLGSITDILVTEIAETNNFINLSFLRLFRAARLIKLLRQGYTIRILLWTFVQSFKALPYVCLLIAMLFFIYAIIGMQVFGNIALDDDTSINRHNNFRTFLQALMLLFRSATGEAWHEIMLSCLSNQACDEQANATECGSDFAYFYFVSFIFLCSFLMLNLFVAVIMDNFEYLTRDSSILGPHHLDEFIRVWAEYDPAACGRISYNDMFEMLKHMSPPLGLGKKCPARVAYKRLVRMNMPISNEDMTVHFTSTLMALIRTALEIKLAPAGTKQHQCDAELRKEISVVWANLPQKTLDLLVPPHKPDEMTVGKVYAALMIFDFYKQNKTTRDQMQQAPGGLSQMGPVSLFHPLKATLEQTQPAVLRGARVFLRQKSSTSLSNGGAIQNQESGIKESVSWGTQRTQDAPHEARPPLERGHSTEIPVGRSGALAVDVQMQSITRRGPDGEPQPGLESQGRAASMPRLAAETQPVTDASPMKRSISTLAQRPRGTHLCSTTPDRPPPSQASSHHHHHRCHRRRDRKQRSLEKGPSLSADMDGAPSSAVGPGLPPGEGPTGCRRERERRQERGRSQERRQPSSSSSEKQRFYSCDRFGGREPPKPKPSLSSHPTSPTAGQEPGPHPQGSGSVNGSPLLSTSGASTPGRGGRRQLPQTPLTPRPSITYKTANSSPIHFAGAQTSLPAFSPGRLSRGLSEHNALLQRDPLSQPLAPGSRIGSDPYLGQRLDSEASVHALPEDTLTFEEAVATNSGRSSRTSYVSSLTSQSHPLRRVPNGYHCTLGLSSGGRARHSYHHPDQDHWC

IC50	SMILES
2600 nM	CC(C)C[C@@H](C(=O)N[C@@H](Cc1ccc(OCc2ccccc2)cc1)C(=O)NC1CCN(Cc2ccccc2)CC1)N(C)C
1200 nM	CC(C)C[C@@H](C(=O)N[C@@H](Cc1ccc(OCc2ccccc2)cc1)C(=O)N1CCN(Cc2ccccc2)CC1)N(C)C
320 nM	CC(C)CCN(C)[C@@H](CC(C)C)C(=O)N[C@@H](Cc1ccc(OCc2ccccc2)cc1)C(=O)NC(C)(C)C
880 nM	CC(C)CCN(C)[C@@H](CC(C)C)C(=O)N[C@@H](Cc1ccc(OCc2ccccc2)cc1)C(=O)NC1CCN(Cc2ccccc2)CC1
1900 nM	CC(C)C[C@@H](C(=O)N[C@@H](Cc1ccc(OCc2ccccc2)cc1)C(=O)N1CCCCC1)N(C)C
310 nM	CC(C)C[C@@H](C(=O)N[C@@H](Cc1ccc(OCc2ccccc2)cc1)C(=O)NCCN1CCCCC1)N(C)Cc1ccc(C(C)(C)C)cc1
880 nM	CC(C)C[C@@H](C(=O)N[C@@H](Cc1ccc(OCc2ccccc2)cc1)C(=O)NCCN1CCCCC1)N(C)C1CCCCC1
420 nM	CC(C)C[C@@H](C(=O)N[C@@H](Cc1ccc(OCc2ccccc2)cc1)C(=O)N1CCN(Cc2ccccc2)CC1)N(C)CC1CCCCC1
40 nM	CC(C)C[C@@H](C(=O)N[C@@H](Cc1ccc(OCc2ccccc2)cc1)C(=O)NC(C)(C)C)N(C)Cc1ccc(C(C)(C)C)cc1
5600 nM	CC(C)C[C@@H](C(=O)N[C@@H](Cc1ccc(OCc2ccccc2)cc1)C(=O)N1CCN(C)CC1)N(C)C1CCCCC1
1100 nM	CC(C)CCN(C)[C@@H](CC(C)C)C(=O)N[C@@H](Cc1ccc(OCc2ccccc2)cc1)C(=O)NCCN1CCCCC1
310 nM	CC(C)C[C@@H](C(=O)N[C@@H](Cc1ccc(OCc2ccccc2)cc1)C(=O)NC1CCN(Cc2ccccc2)CC1)N(C)CC1CCCCC1
660 nM	CC(C)CCN(C)[C@@H](CC(C)C)C(=O)N[C@@H](Cc1ccc(OCc2ccccc2)cc1)C(=O)N1CCCCC1
440 nM	CC(C)C[C@@H](C(=O)N[C@@H](Cc1ccc(OCc2ccccc2)cc1)C(=O)N1CCN(C)CC1)N(C)Cc1ccc(C(C)(C)C)cc1
380 nM	CC(C)C[C@@H](C(=O)N[C@@H](Cc1ccc(OCc2ccccc2)cc1)C(=O)N1CCCCC1)N(C)C1CCCCC1
500 nM	CC(C)C[C@@H](C(=O)N[C@@H](Cc1ccc(OCc2ccccc2)cc1)C(=O)N1CCN(Cc2ccccc2)CC1)N(C)Cc1ccc(C(C)(C)C)cc1
1200 nM	CC(C)CCN(C)[C@@H](CC(C)C)C(=O)N[C@@H](Cc1ccc(OCc2ccccc2)cc1)C(=O)N1CCN(C)CC1
13000 nM	CC(C)C[C@@H](C(=O)N[C@@H](Cc1ccc(OCc2ccccc2)cc1)C(=O)N1CCN(C)CC1)N(C)C
2800 nM	CC(C)C[C@@H](C(=O)N[C@@H](Cc1ccc(OCc2ccccc2)cc1)C(=O)NC(C)(C)C)N(C)C
1300 nM	CC(C)C[C@@H](C(=O)N[C@@H](Cc1ccc(OCc2ccccc2)cc1)C(=O)NC1CCN(Cc2ccccc2)CC1)N(C)C1CCCCC1
90 nM	CC(C)C[C@@H](C(=O)N[C@@H](Cc1ccc(OCc2ccccc2)cc1)C(=O)N1CCCCC1)N(C)Cc1ccc(C(C)(C)C)cc1
270 nM	CC(C)C[C@@H](C(=O)N[C@@H](Cc1ccc(OCc2ccccc2)cc1)C(=O)NC1CCN(Cc2ccccc2)CC1)N(C)Cc1ccc(C(C)(C)C)cc1
200 nM	CC(C)C[C@@H](C(=O)N[C@@H](Cc1ccc(OCc2ccccc2)cc1)C(=O)NC(C)(C)C)N(C)C1CCCCC1
320 nM	CC(C)C[C@@H](C(=O)N[C@@H](Cc1ccc(OCc2ccccc2)cc1)C(=O)N1CCCCC1)N(C)CC1CCCCC1
1000 nM	CC(C)C[C@@H](C(=O)N[C@@H](Cc1ccc(OCc2ccccc2)cc1)C(=O)NCCN1CCCCC1)N(C)CC1CCCCC1
500 nM	CC(C)C[C@@H](C(=O)N[C@@H](Cc1ccc(OCc2ccccc2)cc1)C(=O)NC(C)(C)C)N(C)CC1CCCCC1
4100 nM	CC(C)C[C@@H](C(=O)N[C@@H](Cc1ccc(OCc2ccccc2)cc1)C(=O)NCCN1CCCCC1)N(C)C
590 nM	CC(C)CCN(C)[C@@H](CC(C)C)C(=O)N[C@@H](Cc1ccc(OCc2ccccc2)cc1)C(=O)N1CCN(Cc2ccccc2)CC1
760 nM	CC(C)C[C@@H](C(=O)N[C@@H](Cc1ccc(OCc2ccccc2)cc1)C(=O)N1CCN(Cc2ccccc2)CC1)N(C)C1CCCCC1
1200 nM	CC(C)C[C@@H](C(=O)N[C@@H](Cc1ccc(OCc2ccccc2)cc1)C(=O)N1CCN(C)CC1)N(C)CC1CCCCC1
